Tests used:
Triticum aestivum = test: Growth height of young cereal plants (Example 11, Table A); format: in vivo
From the text: (§1) The vessels used for the experiments were plastic pots having a volume of 1,130 cm^3 (Table A) or paraffined paper cups having a volume of 170 cm^3 (Table B). The pots and cups were filled with a sandy loam. The seeds of the test plants-separated by species-were sown shallow. Preemergence treatment (soil treatment) was effected immediately after sowing and before germination of the seeds. Seeds lying on the surface came into contact with the active ingredients. Postemergence treatment (leaf treatment) took place at an average growth height of the plants (depending on the rate of growth) of from 6 to 10 cm. The substances were suspended, emulsified or dissolved in water as diluent and applied by means of fine nozzles. The vessels were kept in the greenhouse in a temperature range of 12° C. to 25° C., and were regularly sprinkler irrigated for the duration of the experiment. The observation period was 6 to 8 weeks.

Hordeum vulgare = test: as above; format: in vivo; conditions: soil treatment
From the text: as §1

soybeans = test: Soybeans in a vegetation experiment in sandy loam (Example 19); format: in vivo, soybean (Gieso variety); conditions: for Growth height: 4 weeks; for response vs control in vivo at 3000 g/ha / response vs control in vivo at 6000 g/ha: control 100
Method: Soybean plants of the Gieso variety were grown in a neutral sandy loam. Fertilization took place at the time of sowing, with 0.5 g N as ammonium nitrate and 1.0 g P2 O5 as secondary potassium phosphate. […]
After 4 weeks, the treated plants were much shorter than the control, and looked more compact as a result of the different angle of the leaves. The prior art compound used for comparison purposes was 2,3,5-triiodobenzoic acid (T; U.S. Pat. No. 2,978,838).

Cynodon dactylon = test: Growth-regulating action, postemergence, greenhouse (Example 35, Table 1); format: in vivo; conditions: for growth height relative: control 100
From the text: as §1
(§2) Further experiments were carried out in the greenhouse under the condition described in Example 11. […] As the plants which were examined liked the warmth (Eupghorbia geniculate, Arachis hypogaea, Cynodon dactylon), they were kept at from 20°-30° C. Cynodon dactylon from seed was cut once and the young growth treated postemergence.

Arachis hypogaea = test: as above; format: in vivo; conditions: for growth height relative: control 100
From the text: as §1, §2

[1] = Glycine max, 672 h, 3.0 kg/ha, read-out: Growth height relative
[2] = Glycine max, 672 h, 6.0 kg/ha, read-out: Growth height relative
[3] = Glycine max, 672 h, read-out: Growth height relative

SMILES | Growth height (Triticum aestivum; leaf treatment, 0.5 kg/ha) [cm] | Growth height (Triticum aestivum; leaf treatment, 1.0 kg/ha) [cm] | Growth height (Triticum aestivum; leaf treatment, 2.0 kg/ha) [cm] | Growth height (Triticum aestivum; soil treatment, 0.5 kg/ha) [cm] | Growth height (Triticum aestivum; soil treatment, 1.0 kg/ha) [cm] | Growth height (Triticum aestivum; soil treatment, 2.0 kg/ha) [cm] | Growth height (Hordeum vulgare; 0.5 kg/ha) [cm] | Growth height (Hordeum vulgare; 1.0 kg/ha) [cm] | Growth height (Hordeum vulgare; 2.0 kg/ha) [cm] | Growth height (soybeans; 3.0 kg/ha, soil) [cm] | Growth height (soybeans; 6.0 kg/ha, soil) [cm] | response vs control in vivo at 3000 g/ha (soybeans; [1]) [%] | response vs control in vivo at 6000 g/ha (soybeans; [2]) [%] | other results
Clc1ccc(CN2N=NC3C4CC(C5N=NC45)C32)cc1 (centres unmarked) | 40 | 39 | 40 | 40 | 40 | 30 | 48 | 44 | 41 |  |  |  |  | 
Clc1ccc(N2N=NC3C4CC(C5NNC45)C32)cc1 (centres unmarked) [drawing 369] | 30 | 28 | 25 | 12 | 6 | 7 | 30 | 18 | 14 |  |  |  |  | Growth height (Triticum aestivum; leaf treatment, 0.25 kg/ha): 36 cm; Growth height (Triticum aestivum; soil treatment, 0.25 kg/ha): 22 cm; Growth height (Hordeum vulgare; 0.25 kg/ha): 36 cm
Brc1cccc(N2N=NC3C4CC(C5N=NC45)C32)c1 (centres unmarked) [drawing 366] | 33 | 28 | 17 | 24 | 20 | 16 | 38 | 30 | 27 |  |  |  |  | 
FC(F)(F)c1ccc(Cl)c(N2N=NC3C4CC(C5N=NC45)C32)c1 (centres unmarked) [drawing 396] |  |  |  |  |  |  |  |  |  | 17.5 | 13.5 | 76.1 | 58.7 | 
O=C(O)c1cc(I)cc(I)c1I [T, 2,3,5-triiodobenzoic acid, reference compound] |  |  |  |  |  |  |  |  |  |  |  |  |  | Growth height (soybeans; 0.125 kg/ha): 23.5 cm; Growth height (soybeans; 0.375 kg/ha): 25.0 cm; Growth height (soybeans; 0.750 kg/ha): 23.0 cm; response vs control in vivo at 125 g/ha (soybeans; [3]): 102%; response vs control in vivo at 375 g/ha (soybeans; [3]): 109%; response vs control in vivo at 750 g/ha (soybeans; [3]): 100%
Brc1cccc(N2N=NC3C4CC(C5N=NC45)C32)c1 (centres unmarked) [drawing 399] |  |  |  |  |  |  |  |  |  | 17.0 | 16.0 | 73.9 | 69.6 | 
FC(F)(F)c1cccc(N2C3C4CC(C5N=NC45)C32)c1 (centres unmarked) [drawing 434] |  |  |  |  |  |  |  |  |  |  |  |  |  | Growth height (Cynodon dactylon; 0.5 kg/ha): 4 cm; growth height relative (Cynodon dactylon; 0.5 kg/ha): 36; Growth height (Cynodon dactylon; 1.0 kg/ha): 4 cm; growth height relative (Cynodon dactylon; 1.0 kg/ha): 36; Growth height (Cynodon dactylon; 2.0 kg/ha): 3 cm; growth height relative (Cynodon dactylon; 2.0 kg/ha): 27; Growth height (Arachis hypogaea; 0.25 kg/ha): 8 cm; growth height relative (Arachis hypogaea; 0.25 kg/ha): 50; Growth height (Arachis hypogaea; 0.5 kg/ha): 8 cm; growth height relative (Arachis hypogaea; 0.5 kg/ha): 50; Growth height (Arachis hypogaea; 1.0 kg/ha): 7.5 cm; growth height relative (Arachis hypogaea; 1.0 kg/ha): 47; Growth height (Arachis hypogaea; 2.0 kg/ha): 5 cm; growth height relative (Arachis hypogaea; 2.0 kg/ha): 31
Brc1ccc(N2N=NC3C4CC(C5N=NC45)C32)cc1 (centres unmarked) [drawing 397] |  |  |  |  |  |  |  |  |  | 14.0 | 14.0 | 60.9 | 60.9 | 
c1csc(N2C3C4CC(C5N=NC45)C32)n1 (centres unmarked) |  |  |  |  |  |  |  |  |  |  |  |  |  | Growth height (Cynodon dactylon; 0.5 kg/ha): 8 cm; growth height relative (Cynodon dactylon; 0.5 kg/ha): 73; Growth height (Cynodon dactylon; 1.0 kg/ha): 7 cm; growth height relative (Cynodon dactylon; 1.0 kg/ha): 64; Growth height (Cynodon dactylon; 2.0 kg/ha): 6 cm; growth height relative (Cynodon dactylon; 2.0 kg/ha): 54

— patent US4257941A, “Polycyclic nitrogen-containing compounds” (BASF Aktiengesellschaft, priority 1976, dated 1981)
